# In EPA's ToxRefDB 2:
# Tests used:
# rat [1] = settings: Prenatal developmental toxicity study, sprague dawley, Oral, Gavage/Intubation, dose end: 15 GD
# rat [2] = settings: Subchronic dermal toxicity, sprague dawley, Topical, dose end: 13 week, group: systemic, systemic / in life observation / clinical signs / erythema
# dog [3] = settings: Subchronic oral toxicity in nonrodent, beagle, Feed, dose end: 3 month, group: systemic
# rat [4] = settings: Multigenerational reproductive toxicity study, sprague dawley, Oral, Feed, dose end: 2 generation
# rat [5] = settings: Subchronic oral toxicity in rodents, Feed, dose end: 13 week, group: systemic
# mouse [6] = settings: Carcinogenicity; cd1; Oral; Feed; dose end: 78 week; group: systemic; systemic / organ weight / liver / nos + systemic / pathology microscopic / liver / hypertrophy + systemic / pathology microscopic / liver / …
# mouse [7] = settings: Subchronic oral toxicity in rodents, cd1, Feed, dose end: 3 month, group: systemic
# rat [8] = settings: Combined chronic toxicity/carcinogenicity, sprague dawley, Oral, Feed, dose end: 2 year, group: systemic
# rat [9] = settings: Prenatal developmental toxicity study, other, Oral, Gavage/Intubation, dose end: 15 GD
# dog [10] = settings: Chronic toxicity, beagle, Oral, Feed, dose end: 52 week, group: systemic
# rat [11] = settings: Combined chronic toxicity/carcinogenicity, fischer, Oral, Feed, dose end: 2 year
# rabbit [12] = settings: Prenatal developmental toxicity study, chinchilla, Oral, Gavage/Intubation, dose end: 18 GD
# mouse [13] = settings: Combined chronic toxicity/carcinogenicity, b6c3f1, Oral, Feed, dose end: 102 week
# rat [14] = settings: Multigenerational reproductive toxicity study, sprague dawley, Oral, Feed, dose end: 2 generation; remark: listed apart in the source
# rabbit [15] = settings: Prenatal developmental toxicity study, dutch, Oral, Gavage/Intubation, dose end: 18 GD
# mouse [16] = settings: Combined chronic toxicity/carcinogenicity, b6c3f1, Oral, Feed, dose end: 2 year, group: systemic
# rat [17] = settings: Subchronic oral toxicity in rodents, fischer, Feed, dose end: 13 week, group: systemic, systemic / in life observation / body weight / body weight
# dog [18] = settings: Chronic toxicity; beagle; Oral; Feed; dose end: 53 week; group: cholinesterase; cholinesterase / cholinesterase / cholinesterase / erythrocyte cholinesterase (che) + cholinesterase / cholinesterase / cholinesterase / …
# [19] = group: developmental, systemic / in life observation / body weight / fetal weight
# [20] = group: maternal, reproductive / reproductive performance / resorptions / resorptions
# [21] = group: maternal, systemic / in life observation / body weight / body weight gain + systemic / in life observation / clinical signs / abnormal movements + …
# [22] = systemic / pathology microscopic / liver / hypertrophy
# [23] = systemic / pathology microscopic / liver / hypertrophy + systemic / clinical chemistry / alkaline phosphatase (alp/alk) / alkaline …
# [24] = group: offspring, developmental / offspring survival late / viability index / viability index + systemic / in life observation / body weight / offspring (pup…
# [25] = group: parental, systemic / in life observation / body weight / body weight + systemic / in life observation / food consumption / food consumption + systemic…
# [26] = group: reproductive, reproductive / reproductive performance / dystocia / dystocia + reproductive / reproductive performance / gestational length / gestational …
# [27] = systemic / pathology microscopic / liver / vacuolization
# [28] = systemic / pathology microscopic / liver / vacuolization + systemic / clinical chemistry / cholesterol / cholesterol + systemic / clinical …
# [29] = systemic / pathology microscopic / liver / hypertrophy + systemic / clinical chemistry / alanine aminotransferase (alt/sgpt) / alanine …
# [30] = systemic / hematology / hematocrit (hct) / hematocrit (hct) + systemic / hematology / hemoglobin (hgb) / hemoglobin (hgb) + systemic / …
# [31] = group: developmental, developmental / developmental malformation / bone / short supernumerary + systemic / in life observation / body weight / fetal weight
# [32] = group: maternal, reproductive / reproductive performance / implantations / implantations + reproductive / reproductive performance / resorptions / …
# [33] = systemic / in life observation / body weight / body weight gain
# [34] = systemic / in life observation / body weight / body weight gain + systemic / clinical chemistry / alkaline phosphatase (alp/alk) / alkaline …
# [35] = group: cholinesterase, cholinesterase / cholinesterase / cholinesterase / brain cholinesterase (che) + cholinesterase / cholinesterase / cholinesterase / …
# [36] = group: systemic, systemic / in life observation / clinical signs / alopecia + systemic / in life observation / clinical signs / soft stools + systemic / in …
# [37] = group: maternal, reproductive / reproductive performance / resorptions / resorptions + reproductive / reproductive performance / aborted / aborted + …
# [38] = group: cholinesterase, cholinesterase / cholinesterase / cholinesterase / plasma cholinesterase (che)
# [39] = group: systemic, systemic / in life observation / body weight / body weight
# [40] = group: systemic, systemic / in life observation / body weight / body weight + systemic / clinical chemistry / cholesterol / cholesterol + systemic / organ …
# [41] = group: offspring, developmental / offspring survival late / [other] / [other] + developmental / offspring survival late / viability index / viability index + …
# [42] = group: parental, systemic / pathology microscopic / epididymis / vacuolization
# [43] = group: parental, systemic / pathology microscopic / epididymis / vacuolization + systemic / organ weight / epididymis / absolute
# [44] = group: reproductive, reproductive / offspring survival early / birth index / birth index + reproductive / reproductive performance / fertility / fertility + …
# [45] = group: developmental, systemic / in life observation / body weight / fetal weight + developmental / developmental malformation / bone / unossified
# [46] = group: maternal, systemic / in life observation / clinical signs / soft stools
# [47] = group: maternal, systemic / in life observation / clinical signs / soft stools + reproductive / reproductive performance / resorptions / resorptions + …
# [48] = systemic / in life observation / clinical signs / fur (altered appearance) + systemic / pathology microscopic / skin / fibrosarcoma + …
# [49] = systemic / pathology microscopic / skin / fibrosarcoma + systemic / pathology microscopic / skin / rhabdomyosarcoma + systemic / in life …
structure (smiles),measurement,setting,value
"O=[N+]([O-])C(CO)(CO)CO [2-(Hydroxymethyl)-2-nitro-1,3-propanediol]",LEL,rat [1]; [19],750 mg/kg/day
same,LOAEL,rat [1]; [19],> 750 mg/kg/day
same,NEL,rat [1]; [19],375 mg/kg/day
same,NOAEL,rat [1]; [19],≥ 750 mg/kg/day
same,LEL,rat [1]; [20],375 mg/kg/day
same,LOAEL,rat [1]; [21],750 mg/kg/day
same,NEL,rat [1]; [21],50 mg/kg/day
same,NOAEL,rat [1]; [21],375 mg/kg/day
same,LEL,rat [2],1000 mg/kg/day
same,LOAEL,rat [2],> 1000 mg/kg/day
same,NEL,rat [2],500 mg/kg/day
same,NOAEL,rat [2],≥ 1000 mg/kg/day
N#CC(CCc1ccc(Cl)cc1)(Cn1cncn1)c1ccccc1 (stereo not given) [Fenbuconazole],LOAEL,dog [3]; [22],13.3 mg/kg/day
same,NEL,dog [3]; [23],3.3 mg/kg/day
same,NOAEL,dog [3]; [23],3.3 mg/kg/day
same,LEL,dog [3]; systemic / pathology microscopic / liver / hypertrophy + systemic / organ weight / liver / absolute + systemic / organ weight / liver / …,13.3 mg/kg/day
same,LEL,rat [4]; [24],40 mg/kg/day
same,LOAEL,rat [4]; [24],40 mg/kg/day
same,NEL,rat [4]; [24],4 mg/kg/day
same,NOAEL,rat [4]; [24],4 mg/kg/day
same,LOAEL,rat [4]; [25],40 mg/kg/day
same,NEL,rat [4]; [25],0.4 mg/kg/day
same,NOAEL,rat [4]; [25],4 mg/kg/day
same,LEL,"rat [4]; group: parental, systemic / organ weight / liver / absolute + systemic / organ weight / liver / relative to body weight",4 mg/kg/day
same,LEL,rat [4]; [26],40 mg/kg/day
same,LOAEL,rat [4]; [26],40 mg/kg/day
same,NEL,rat [4]; [26],4 mg/kg/day
same,NOAEL,rat [4]; [26],4 mg/kg/day
same,LEL,rat [5]; [27],5.1 mg/kg/day
same,LOAEL,rat [5]; [27],5.1 mg/kg/day
same,NEL,rat [5]; [28],1.3 mg/kg/day
same,NOAEL,rat [5]; [28],1.3 mg/kg/day
same,LEL,mouse [6],26.3 mg/kg/day
same,LOAEL,mouse [6],26.3 mg/kg/day
same,NEL,mouse [6],1.28 mg/kg/day
same,NOAEL,mouse [6],1.28 mg/kg/day
same,LEL,mouse [7]; [22],11.1 mg/kg/day
same,LOAEL,mouse [7]; [22],11.1 mg/kg/day
same,NEL,mouse [7]; [29],3.8 mg/kg/day
same,NOAEL,mouse [7]; [29],3.8 mg/kg/day
same,LEL,rat [8]; systemic / hematology / hematocrit (hct) / hematocrit (hct) + systemic / hematology / hemoglobin (hgb) / hemoglobin (hgb),3.03 mg/kg/day
same,NEL,rat [8]; [30],0.31 mg/kg/day
same,NOAEL,rat [8]; [30],3.03 mg/kg/day
same,LOAEL,rat [8]; systemic / pathology microscopic / thyroid gland / adenoma/carcinoma combined + systemic / organ weight / liver / absolute + systemic / …,30.6 mg/kg/day
same,LEL,rat [9]; [31],150 mg/kg/day
same,LOAEL,rat [9]; [31],> 150 mg/kg/day
same,NEL,rat [9]; [31],75 mg/kg/day
same,NOAEL,rat [9]; [31],≥ 150 mg/kg/day
same,LEL,rat [9]; [32],75 mg/kg/day
same,LOAEL,rat [9]; [32],75 mg/kg/day
same,NEL,rat [9]; [32],30 mg/kg/day
same,NOAEL,rat [9]; [32],30 mg/kg/day
same,LEL,dog [10]; [33],3.75 mg/kg/day
same,LOAEL,dog [10]; [33],3.75 mg/kg/day
same,NEL,dog [10]; [34],0.38 mg/kg/day
same,NOAEL,dog [10]; [34],0.38 mg/kg/day
COP(=S)(OC)Oc1ccc(SC)c(C)c1 [Fenthion],LEL,rat [11]; [35],0.07 mg/kg/day
same,LOAEL,rat [11]; [35],0.07 mg/kg/day
same,NEL,rat [11]; [35],< 0.07 mg/kg/day
same,NOAEL,rat [11]; [35],< 0.07 mg/kg/day
same,LEL,rat [11]; [36],0.3 mg/kg/day
same,LOAEL,rat [11]; [36],0.3 mg/kg/day
same,NEL,rat [11]; [36],0.07 mg/kg/day
same,NOAEL,rat [11]; [36],0.07 mg/kg/day
same,LEL,rabbit [12]; [19],18 mg/kg/day
same,LOAEL,rabbit [12]; [19],18 mg/kg/day
same,NEL,rabbit [12]; [19],6 mg/kg/day
same,NOAEL,rabbit [12]; [19],6 mg/kg/day
same,LEL,rabbit [12]; [20],6 mg/kg/day
same,LOAEL,rabbit [12]; [20],6 mg/kg/day
same,NEL,rabbit [12]; [37],2 mg/kg/day
same,NOAEL,rabbit [12]; [37],2 mg/kg/day
same,LEL,mouse [13]; [38],0.03 mg/kg/day
same,LOAEL,mouse [13]; [38],0.03 mg/kg/day
same,NEL,mouse [13]; [38],< 0.03 mg/kg/day
same,NOAEL,mouse [13]; [38],< 0.03 mg/kg/day
same,LEL,mouse [13]; [39],1.95 mg/kg/day
same,LOAEL,mouse [13]; [39],1.95 mg/kg/day
same,NEL,mouse [13]; [40],0.4 mg/kg/day
same,NOAEL,mouse [13]; [40],0.4 mg/kg/day
same,LEL,rat [14]; [35],0.7 mg/kg/day
same,LOAEL,rat [14]; [35],0.7 mg/kg/day
same,NEL,rat [14]; [35],0.1 mg/kg/day
same,NOAEL,rat [14]; [35],0.1 mg/kg/day
same,LEL,rat [14]; [41],5 mg/kg/day
same,LOAEL,rat [14]; [41],> 5 mg/kg/day
same,NEL,rat [14]; [41],0.7 mg/kg/day
same,NOAEL,rat [14]; [41],≥ 5 mg/kg/day
same,LEL,rat [14]; [42],0.7 mg/kg/day
same,LOAEL,rat [14]; [42],0.7 mg/kg/day
same,NEL,rat [14]; [43],0.1 mg/kg/day
same,NOAEL,rat [14]; [43],0.1 mg/kg/day
same,LEL,rat [14]; [44],5 mg/kg/day
same,LOAEL,rat [14]; [44],> 5 mg/kg/day
same,NEL,rat [14]; [44],0.7 mg/kg/day
same,NOAEL,rat [14]; [44],≥ 5 mg/kg/day
same,LEL,rabbit [15]; [35],2.75 mg/kg/day
same,LOAEL,rabbit [15]; [35],2.75 mg/kg/day
same,NEL,rabbit [15]; [35],1 mg/kg/day
same,NOAEL,rabbit [15]; [35],1 mg/kg/day
same,LEL,rabbit [15]; [19],2.75 mg/kg/day
same,LOAEL,rabbit [15]; [45],> 7.5 mg/kg/day
same,NEL,rabbit [15]; [45],1 mg/kg/day
same,NOAEL,rabbit [15]; [45],≥ 7.5 mg/kg/day
same,LEL,rabbit [15]; [46],2.75 mg/kg/day
same,LOAEL,rabbit [15]; [46],2.75 mg/kg/day
same,NEL,rabbit [15]; [47],1 mg/kg/day
same,NOAEL,rabbit [15]; [47],1 mg/kg/day
same,LOAEL,mouse [16]; [48],> 3 mg/kg/day
same,NOAEL,mouse [16]; [48],≥ 3 mg/kg/day
same,LEL,mouse [16]; [49],1.5 mg/kg/day
same,NEL,mouse [16]; [49],< 1.5 mg/kg/day
same,LEL,rat [17],16 mg/kg/day
same,LOAEL,rat [17],16 mg/kg/day
same,NEL,rat [17],8 mg/kg/day
same,NOAEL,rat [17],8 mg/kg/day
same,LEL,dog [18],0.258 mg/kg/day
same,LOAEL,dog [18],0.258 mg/kg/day
same,NEL,dog [18],0.056 mg/kg/day
same,NOAEL,dog [18],0.056 mg/kg/day
